Values joined by “and” are separate entries in the source; they are usually repeats but may differ in a detail not shown here. Equal entries are not always repeated. Toxic doses and inconclusive results are not listed.
Tested on: P388 leukemia ip, CD2F1 mice, survival T/C
Experiment: NCI In Vivo Anticancer Drug Screen. Data for tumor model P388 Leukemia (intraperitoneal) in CD2F1 (CDF1) mice
Conditions: endpoint: median survival time, higher = longer survival
How it was run: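 Mice carrying the transplanted tumor received test compound or vehicle. Survival was recorded in each group, and the value is the treated-group measurement divided by that of the vehicle-treated control group.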

[1] = dose: 60.0 mg/kg/injection, schedule: Q01DX005 (ip), vehicle: saline with Tween-80
[2] = dose: 120.0 mg/kg/injection, schedule: Q01DX005 (ip), vehicle: saline with Tween-80
[3] = dose: 240.0 mg/kg/injection, schedule: Q01DX005 (ip), vehicle: saline with Tween-80
[4] = dose: 50.0 mg/kg/injection, schedule: Q01DX005 (ip), vehicle: Klucel (hydroxypropylcellulose) (HPC)
[5] = dose: 100.0 mg/kg/injection, schedule: Q01DX005 (ip), vehicle: Klucel (hydroxypropylcellulose) (HPC)
[6] = dose: 200.0 mg/kg/injection, schedule: Q01DX005 (ip), vehicle: Klucel (hydroxypropylcellulose) (HPC)
[7] = dose: 60.0 mg/kg/injection, schedule: Q01DX005 (ip), vehicle: Klucel (hydroxypropylcellulose) (HPC)
[8] = dose: 120.0 mg/kg/injection, schedule: Q01DX005 (ip), vehicle: Klucel (hydroxypropylcellulose) (HPC)
[9] = dose: 240.0 mg/kg/injection, schedule: Q01DX005 (ip), vehicle: Klucel (hydroxypropylcellulose) (HPC)
[10] = dose: 25.0 mg/kg/injection, schedule: Q01DX005 (ip), vehicle: saline
[11] = dose: 12.5 mg/kg/injection, schedule: Q01DX005 (ip), vehicle: Klucel (hydroxypropylcellulose) (HPC)
[12] = dose: 50.0 mg/kg/injection, schedule: Q01DX009 (ip), vehicle: saline with Tween-80
[13] = dose: 100.0 mg/kg/injection, schedule: Q04DX003 (ip), vehicle: saline with Tween-80
[14] = dose: 200.0 mg/kg/injection, schedule: Q04DX003 (ip), vehicle: saline with Tween-80
[15] = dose: 12.5 mg/kg/injection, schedule: Q01DX009 (ip), vehicle: saline
[16] = dose: 25.0 mg/kg/injection, schedule: Q01DX009 (ip), vehicle: saline
[17] = dose: 100.0 mg/kg/injection, schedule: Q01DX009 (ip), vehicle: saline with Tween-80
[18] = dose: 200.0 mg/kg/injection, schedule: Q01DX009 (ip), vehicle: saline with Tween-80
[19] = dose: 400.0 mg/kg/injection, schedule: Q01DX009 (ip), vehicle: saline with Tween-80
[20] = dose: 50.0 mg/kg/injection, schedule: Q01DX009 (ip), vehicle: Klucel (hydroxypropylcellulose) (HPC)
[21] = dose: 100.0 mg/kg/injection, schedule: Q01DX009 (ip), vehicle: Klucel (hydroxypropylcellulose) (HPC)
[22] = dose: 200.0 mg/kg/injection, schedule: Q01DX009 (ip), vehicle: Klucel (hydroxypropylcellulose) (HPC)

O=C1CSC(c2ccccc2Cl)N1c1nncs1 (stereo not given)
T/C [1]: 103 % of control | T/C [2]: 98 % of control | T/C [3]: 104 % of control

CCOC(=O)N/N=C/c1ccc2c(c1)c1ccccc1n2CC
T/C [4]: 90 % of control | T/C [5]: 98 % of control | T/C [6]: 90 % of control

CC(=O)Oc1cc2c(cc1C(NC(N)=O)c1ccc3c(c1)OCO3)OCO2 (stereo not given)
T/C [7]: 100 % of control | T/C [8]: 93 % of control | T/C [9]: 92 % of control

CC[N+](C)(CC)C[Si](C)(C)c1ccccc1
T/C (dose: 12.5 mg/kg/injection, schedule: Q01DX005 (ip), vehicle: saline): 98 % of control | T/C [10]: 100 % of control | T/C (dose: 50.0 mg/kg/injection, schedule: Q01DX005 (ip), vehicle: saline): 105 % of control and 98 % of control

COc1ccc2c(c1)C(O)C(CO)C(C(=O)O)C2 (stereo not given)
T/C [4]: 106 % of control | T/C [5]: 101 % of control | T/C [6]: 101 % of control

CC(Cl)C(=O)N(C)c1ccccc1 (stereo not given)
T/C (dose: 100.0 mg/kg/injection, schedule: Q04DX003 (ip), vehicle: Klucel (hydroxypropylcellulose) (HPC)): 96 % of control | T/C (dose: 200.0 mg/kg/injection, schedule: Q04DX003 (ip), vehicle: Klucel (hydroxypropylcellulose) (HPC)): 92 % of control

COc1cc2c[n+](C)c3c4cc(OC)c(OC)cc4c(OC)cc3c2cc1OC
T/C [11]: 118 % of control | T/C [10]: 109 % of control | T/C [4]: 112 % of control | T/C [5]: 118 % of control | T/C (dose: 100.0 mg/kg/injection, schedule: Q01DX005 (ip), vehicle: saline): 120 % of control

Nc1ccc2c(SCCCCCCSc3c4ccccc4nc4cc(N)ccc34)c3ccccc3nc2c1
T/C [1]: 100 % of control | T/C [2]: 101 % of control | T/C [3]: 104 % of control

CCOC(=O)Sc1ncnc2nc[nH]c12
T/C (dose: 33.0 mg/kg/injection, schedule: Q01DX009 (ip), vehicle: saline with Tween-80): 113 % of control | T/C [12]: 122 % of control | T/C (dose: 75.0 mg/kg/injection, schedule: Q01DX009 (ip), vehicle: saline with Tween-80): 122 % of control | T/C [13]: 104 % of control | T/C [14]: 108 % of control

CCNC(=O)OCc1ccco1
T/C [15]: 92 % of control | T/C [16]: 92 % of control | T/C [12]: 107 % of control

CC(C)=CCC/C(C)=C/COC(=O)C=[N+]=[N-]
T/C [12]: 114 % of control and 91 % of control | T/C [17]: 122 % of control | T/C [18]: 117 % of control and 122 % of control | T/C [19]: 95 % of control

O=C(C1=C(NCc2ccccc2)CCCC1)c1ccccc1
T/C [15]: 97 % of control | T/C [16]: 100 % of control | T/C (dose: 50.0 mg/kg/injection, schedule: Q01DX009 (ip), vehicle: saline): 104 % of control and 109 % of control

COP(=O)(O)/C(=N/NS(=O)(=O)c1ccc(C)cc1)c1ccccc1
T/C (dose: 12.5 mg/kg/injection, schedule: Q01DX009 (ip), vehicle: water): 96 % of control | T/C (dose: 25.0 mg/kg/injection, schedule: Q01DX009 (ip), vehicle: water): 96 % of control | T/C (dose: 50.0 mg/kg/injection, schedule: Q01DX009 (ip), vehicle: water): 93 % of control | T/C (dose: 100.0 mg/kg/injection, schedule: Q01DX009 (ip), vehicle: water): 98 % of control | T/C (dose: 200.0 mg/kg/injection, schedule: Q01DX009 (ip), vehicle: water): 98 % of control | T/C (dose: 400.0 mg/kg/injection, schedule: Q01DX009 (ip), vehicle: water): 97 % of control

CP1(=O)CC23CCCCC2(C1)O3 (stereo not given)
T/C [20]: 109 % of control | T/C [21]: 104 % of control | T/C [22]: 109 % of control

CC(=O)N(C)O
T/C [12]: 100 % of control and 104 % of control | T/C [17]: 105 % of control and 110 % of control | T/C (dose: 200.0 mg/kg/injection, schedule: Q01DX005 (ip), vehicle: saline with Tween-80): 121 % of control | T/C [19]: 160 % of control

O=c1[nH]c(=O)n(C2OC(CCl)C(O)C2O)cc1F (stereo not given)
T/C (dose: 30.0 mg/kg/injection, schedule: Q04DX002 (ip), vehicle: saline): 99 % of control | T/C (dose: 43.0 mg/kg/injection, schedule: Q04DX002 (ip), vehicle: water): 104 % of control | T/C (dose: 60.0 mg/kg/injection, schedule: Q04DX002 (ip), vehicle: saline): 102 % of control | T/C (dose: 86.0 mg/kg/injection, schedule: Q04DX002 (ip), vehicle: water): 106 % of control | T/C (dose: 120.0 mg/kg/injection, schedule: Q04DX002 (ip), vehicle: saline): 116 % of control | T/C (dose: 172.0 mg/kg/injection, schedule: Q04DX002 (ip), vehicle: water): 113 % of control | T/C (dose: 240.0 mg/kg/injection, schedule: Q04DX002 (ip), vehicle: saline): 109 % of control | T/C (dose: 344.0 mg/kg/injection, schedule: Q04DX002 (ip), vehicle: water): 113 % of control

COCCOC(=O)c1c(Cl)c(Cl)c(Cl)c(Cl)c1C(=O)O
T/C [12]: 96 % of control | T/C [17]: 96 % of control | T/C [18]: 101 % of control

Clc1cc2nc3[nH]c4ccccc4c3nc2cc1Cl
T/C (dose: 15.0 mg/kg/injection, schedule: Q01DX005 (ip), vehicle: Klucel (hydroxypropylcellulose) (HPC)): 93 % of control | T/C (dose: 30.0 mg/kg/injection, schedule: Q01DX005 (ip), vehicle: Klucel (hydroxypropylcellulose) (HPC)): 101 % of control | T/C [7]: 93 % of control and 98 % of control | T/C [8]: 97 % of control

CCCCN(C)c1ncnc2[nH]ncc12
T/C (dose: 100.0 mg/kg/injection, schedule: Q04DX003 (ip), vehicle: saline): 100 % of control

CSc1ccccc1[As](c1ccccc1)c1ccccc1
T/C [20]: 95 % of control | T/C [21]: 91 % of control | T/C [22]: 97 % of control

COC(=O)C1C2CC3c4c(c5ccc(OC)cc5n4[N+](=O)[O-])CCN3CC2CC(OC(=O)c2cc(OC)c(OC)c(OC)c2)C1OC (stereo not given)
T/C [11]: 96 % of control | T/C (dose: 25.0 mg/kg/injection, schedule: Q01DX005 (ip), vehicle: Klucel (hydroxypropylcellulose) (HPC)): 98 % of control | T/C [4]: 104 % of control | T/C [5]: 114 % of control | T/C [6]: 88 % of control

COC(=O)c1cc(=O)n(-c2cccc(OC)c2)c(SC)n1
T/C (dose: 25.0 mg/kg/injection, schedule: Q04DX002 (ip), vehicle: Klucel (hydroxypropylcellulose) (HPC)): 107 % of control | T/C (dose: 50.0 mg/kg/injection, schedule: Q04DX002 (ip), vehicle: Klucel (hydroxypropylcellulose) (HPC)): 103 % of control | T/C (dose: 100.0 mg/kg/injection, schedule: Q04DX002 (ip), vehicle: Klucel (hydroxypropylcellulose) (HPC)): 104 % of control and 105 % of control

CC1=NN(C(=O)c2cccnc2)C(=O)C1N=Nc1ccc(S(=O)(=O)N=C(N)N)cc1 (stereo not given)
T/C [13]: 91 % of control | T/C [14]: 92 % of control | T/C (dose: 400.0 mg/kg/injection, schedule: Q04DX003 (ip), vehicle: saline with Tween-80): 88 % of control

COc1ccc(C2CC(C)(OC)Oc3cc4c(cc32)OCO4)cc1 (stereo not given)
T/C (dose: 100.0 mg/kg/injection, schedule: Q01DX001 (ip), vehicle: Klucel (hydroxypropylcellulose) (HPC)): 100 % of control | T/C (dose: 200.0 mg/kg/injection, schedule: Q01DX001 (ip), vehicle: Klucel (hydroxypropylcellulose) (HPC)): 94 % of control

CCOC(=O)C1C(c2ccc(OC)cc2OC)c2cc3c(cc2OC1(C)N1CCCC1)OCO3 (stereo not given)
T/C [7]: 90 % of control | T/C [8]: 97 % of control | T/C [9]: 94 % of control

Cc1ccc2c(c1)=N/C(=N\c1nc(O)c(O)[nH]1)N=2
T/C (dose: 60.0 mg/kg/injection, schedule: Q01DX009 (ip), vehicle: saline with Tween-80): 106 % of control | T/C [17]: 106 % of control | T/C (dose: 140.0 mg/kg/injection, schedule: Q01DX009 (ip), vehicle: saline with Tween-80): 109 % of control | T/C (dose: 210.0 mg/kg/injection, schedule: Q01DX009 (ip), vehicle: saline with Tween-80): 111 % of control

O=C(O)CCC(=O)NCC1CCCC(CNC(=O)CCC(=O)O)C1 (stereo not given)
T/C [20]: 96 % of control | T/C [21]: 110 % of control | T/C [22]: 101 % of control

— PubChem BioAssay AID330 (DTP/NCI, 2004)
